Test results taken from PMC10343464, “Identification and characterization of a novel aminoglycoside O-nucleotidyltransferase ANT(6)-If from Paenibacillus thiaminolyticus PATH554” (Frontiers in Microbiology, 2023).

Tested on: T1, ANT(6)-If
T1 construct: full-length ORF (855 bp, TTG start codon); 284 residues; His6 tag removed with thrombin; likely homodimer by clear-native PAGE
Test: coupled UDP-glucose pyrophosphorylase / phosphoglucomutase / G6PDH assay, NADPH at […] nm
Type: biochemical, Paenibacillus thiaminolyticus
Conditions: 1 mM ATP, 10 mM MgCl2, 50 mM HEPES pH 7.5; temperature not given

CN[C@@H]1[C@H](O[C@H]2[C@H](O[C@H]3[C@H](O)[C@@H](O)[C@H](N=C(N)N)[C@@H](O)[C@@H]3N=C(N)N)O[C@@H](C)[C@]2(O)C=O)O[C@@H](CO)[C@H](O)[C@H]1O [streptomycin]
Km: 12.4 µM
